Assay results taken from PubChem BioAssay AID1259407 (Chemical Carcinogenesis Research Information System (CCRIS), 2018).
Activity calls are given as the source filed them. No rule for the calls is given here.

System: CCRIS mutagenicity, Ames/micronucleus/aberration tests
Experiment: CCRIS mutagenicity studies
[1] = Test System: AMES SALMONELLA TYPHIMURIUM, Strain/Indicator: TA98, Metabolic Activation: NONE, Method: PREINCUBATION
[2] = Test System: AMES SALMONELLA TYPHIMURIUM, Strain/Indicator: TA100, Metabolic Activation: NONE, Method: PREINCUBATION

Question: Which mutagenic call (Test System: AMES SALMONELLA TYPHIMURIUM, Strain/Indicator: TA97, Metabolic Activation: HAMSTER, LIVER, S-9, AROCLOR 1254 (10%), Method: PREINCUBATION) does the source give for Cc1ccc(CO)cc1 here?
Answer: inactive; negative

Question: And the mutagenic call (Test System: AMES SALMONELLA TYPHIMURIUM, Strain/Indicator: TA97, Metabolic Activation: HAMSTER, LIVER, S-9, AROCLOR 1254 (30%), Method: PREINCUBATION)?
Answer: inactive; negative

Question: And the mutagenic call (Test System: AMES SALMONELLA TYPHIMURIUM, Strain/Indicator: TA97, Metabolic Activation: NONE, Method: PREINCUBATION)?
Answer: inactive; negative

Question: And the mutagenic call (Test System: AMES SALMONELLA TYPHIMURIUM, Strain/Indicator: TA97, Metabolic Activation: RAT, LIVER, S-9, AROCLOR 1254 (10%), Method: PREINCUBATION)?
Answer: inactive; negative

Question: What about the mutagenic call (Test System: AMES SALMONELLA TYPHIMURIUM, Strain/Indicator: TA97, Metabolic Activation: RAT, LIVER, S-9, AROCLOR 1254 (30%), Method: PREINCUBATION) of the same compound?
Answer: inactive; negative

Question: What about the mutagenic call (Test System: AMES SALMONELLA TYPHIMURIUM, Strain/Indicator: TA98, Metabolic Activation: HAMSTER, LIVER, S-9, AROCLOR 1254 (10%), Method: PREINCUBATION) of the same compound?
Answer: inactive; negative

Question: And the mutagenic call (Test System: AMES SALMONELLA TYPHIMURIUM, Strain/Indicator: TA98, Metabolic Activation: HAMSTER, LIVER, S-9, AROCLOR 1254 (30%), Method: PREINCUBATION)?
Answer: inactive; negative

Question: And the mutagenic call [1]?
Answer: inactive; negative

Question: What about the mutagenic call (Test System: AMES SALMONELLA TYPHIMURIUM, Strain/Indicator: TA98, Metabolic Activation: RAT, LIVER, S-9, AROCLOR 1254 (10%), Method: PREINCUBATION) of the same compound?
Answer: inactive; negative

Question: And the mutagenic call (Test System: AMES SALMONELLA TYPHIMURIUM, Strain/Indicator: TA98, Metabolic Activation: RAT, LIVER, S-9, AROCLOR 1254 (30%), Method: PREINCUBATION)?
Answer: inactive; negative

Question: And the mutagenic call (Test System: AMES SALMONELLA TYPHIMURIUM, Strain/Indicator: TA100, Metabolic Activation: HAMSTER, LIVER, S-9, AROCLOR 1254 (10%), Method: PREINCUBATION)?
Answer: inactive; negative

Question: What about the mutagenic call (Test System: AMES SALMONELLA TYPHIMURIUM, Strain/Indicator: TA100, Metabolic Activation: HAMSTER, LIVER, S-9, AROCLOR 1254 (30%), Method: PREINCUBATION) of the same compound?
Answer: inactive; negative

Question: What about the mutagenic call [2] of the same compound?
Answer: inactive; negative

Question: And the mutagenic call (Test System: AMES SALMONELLA TYPHIMURIUM, Strain/Indicator: TA100, Metabolic Activation: NONE, Method: STANDARD PLATE)?
Answer: inactive; negative

Question: What about the mutagenic call (Test System: AMES SALMONELLA TYPHIMURIUM, Strain/Indicator: TA100, Metabolic Activation: RAT, LIVER, S-9, AROCLOR 1254 (10%), Method: PREINCUBATION) of the same compound?
Answer: inactive; negative

Question: What about the mutagenic call (Test System: AMES SALMONELLA TYPHIMURIUM, Strain/Indicator: TA100, Metabolic Activation: RAT, LIVER, S-9, AROCLOR 1254 (30%), Method: PREINCUBATION) of the same compound?
Answer: inactive; negative

Question: And the mutagenic call (Test System: AMES SALMONELLA TYPHIMURIUM, Strain/Indicator: TA1535, Metabolic Activation: HAMSTER, LIVER, S-9, AROCLOR 1254 (10%), Method: PREINCUBATION)?
Answer: inactive; negative

Question: And the mutagenic call (Test System: AMES SALMONELLA TYPHIMURIUM, Strain/Indicator: TA1535, Metabolic Activation: HAMSTER, LIVER, S-9, AROCLOR 1254 (30%), Method: PREINCUBATION)?
Answer: inactive; negative

Question: And the mutagenic call (Test System: AMES SALMONELLA TYPHIMURIUM, Strain/Indicator: TA1535, Metabolic Activation: NONE, Method: PREINCUBATION)?
Answer: inactive; negative

Question: What about the mutagenic call (Test System: AMES SALMONELLA TYPHIMURIUM, Strain/Indicator: TA1535, Metabolic Activation: RAT, LIVER, S-9, AROCLOR 1254 (10%), Method: PREINCUBATION) of the same compound?
Answer: inactive; negative

Question: And the mutagenic call (Test System: AMES SALMONELLA TYPHIMURIUM, Strain/Indicator: TA1535, Metabolic Activation: RAT, LIVER, S-9, AROCLOR 1254 (30%), Method: PREINCUBATION)?
Answer: inactive; negative

Question: And the mutagenic call (Test System: AMES SALMONELLA TYPHIMURIUM, Strain/Indicator: TA1537, Metabolic Activation: HAMSTER, LIVER, S-9, AROCLOR 1254 (30%), Method: PREINCUBATION)?
Answer: inactive; negative

Question: What about the mutagenic call (Test System: AMES SALMONELLA TYPHIMURIUM, Strain/Indicator: TA1537, Metabolic Activation: NONE, Method: PREINCUBATION) of the same compound?
Answer: inactive; negative

Question: What about the mutagenic call (Test System: AMES SALMONELLA TYPHIMURIUM, Strain/Indicator: TA1537, Metabolic Activation: RAT, LIVER, S-9, AROCLOR 1254 (30%), Method: PREINCUBATION) of the same compound?
Answer: inactive; negative

Question: For O=C(Cl)CCc1ccccc1, which mutagenic call [1] is on record?
Answer: active; positive

Question: What about the mutagenic call (Test System: AMES SALMONELLA TYPHIMURIUM, Strain/Indicator: TA98, Metabolic Activation: RAT LIVER S-9, PCB, Method: PREINCUBATION) of the same compound?
Answer: active; positive

Question: What about the mutagenic call [2] of the same compound?
Answer: active; positive

Question: And the mutagenic call (Test System: AMES SALMONELLA TYPHIMURIUM, Strain/Indicator: TA100, Metabolic Activation: RAT LIVER S-9, PCB, Method: PREINCUBATION)?
Answer: active; positive

Question: And the mutagenic call (Test System: AMES SALMONELLA TYPHIMURIUM, Strain/Indicator: TA104, Metabolic Activation: NONE, Method: PREINCUBATION)?
Answer: active; positive

Question: What about the mutagenic call (Test System: AMES SALMONELLA TYPHIMURIUM, Strain/Indicator: TA104, Metabolic Activation: RAT LIVER S-9, PCB, Method: PREINCUBATION) of the same compound?
Answer: active; positive

Question: And the mutagenic call (Test System: E.COLI, Strain/Indicator: WP2 UVRA, Metabolic Activation: NONE, Method: PREINCUBATION)?
Answer: inactive; negative

Question: And the mutagenic call (Test System: E.COLI, Strain/Indicator: WP2 UVRA, Metabolic Activation: RAT LIVER S-9, PCB, Method: PREINCUBATION)?
Answer: active; positive
